We go through 19 compounds from patent US20260193293A1, “PEPTIDES CAPABLE OF INHIBITING PROTEIN-PROTEIN INTERACTIONS AT GABAB1A SUBUNIT AND USES THEREOF” (UNIVERSITY OF COPENHAGEN, priority 2022, published 2026).

Like-named read-outs stand apart in the source and are kept apart here. Non-standard residues stand in square brackets, D forms with d. Residues, ends and D or L forms follow the SMILES beside them. *: point of attachment. NMeT = CN[C@H](C(=O)O)[C@@H](C)O; NMeD = CN[C@@H](CC(=O)O)C(=O)O; NMeV = CN[C@H](C(=O)O)C(C)C; Bn = c1ccc(C*)cc1

This experiment addresses Sushi domains (SD1/2) protein. As to the kind of experiment: Fluorescence polarization (FP) competition assay with AJAP-1probe, calculated Ki. Type of experiment: binding. The note with it: read-out: Ki (nM) mean ± SEM. The essentials:
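Ki values were derived from IC50s (sigmoidal fits, ≥ triplicate), with probe Kd obtained by saturation titration of SD1/2. Peptides displaced a 25 nM TAMRA-labelled probe; polarization read at 530/580 nm in 1% BSA-containing PBS, pH 7.4, room temperature.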

Setting [1] is: Table 11, deep mutational scanning validation variants of AJAP-1WT.
Where [2] appears, read: Table 8, Ala-, D-amino acids and N-methylation scans of AJAP-1WT.
[3] abbreviates: Table 4, truncation and elongation scans of APP epitope.
Setting [4] is: Table 6, elongation and truncation scan of PIANP binding epitope.
Setting [5] is: Table 7, Ala-, D-amino acids and N-methylation scans of APPWT.

With `CC[C@H](C)[C@H](NC(=O)[C@H](Cc1ccccc1)NC(=O)[C@H](CCC(=O)O)NC(=O)[C@@H](NC(=O)[C@H](CCC(=O)O)NC(C)=O)[C@@H](C)O)C(=O)N[C@@H](C)C(=O)N[C@@H](Cc1c[nH]c2ccccc12)C(=O)NCC(=O)N1CCC[C@H]1C(=O)N[C@H](C(=O)NCC(=O)N[C@@H](CC(=O)O)C(=O)N[C@@H](Cc1ccc(O)cc1)C(=O)N[C@@H](CC(=O)O)C(N)=O)[C@@H](C)O` (Ac-ETEFIAWGPTGDYD-NH2), under setting [1], the Ki is 40 ± 1 nM.
The same measure, in the same setting: under `CC[C@H](C)[C@H](NC(=O)[C@H](Cc1ccccc1)NC(=O)[C@H](CCC(=O)O)NC(=O)[C@@H](NC(=O)[C@H](CCC(=O)O)NC(C)=O)[C@@H](C)O)C(=O)N[C@@H](C)C(=O)N[C@@H](Cc1c[nH]c2ccccc12)C(=O)NCC(=O)N1CCC[C@H]1C(=O)N[C@H](C(=O)N[C@@H](Cc1ccccc1)C(=O)N[C@@H](CC(=O)O)C(=O)N[C@@H](CCC(=O)O)C(=O)N[C@@H](CC(=O)O)C(N)=O)[C@@H](C)O` [ETEFIAWGPTFDED] stands 46 ± 2 nM.
For the compound `CC[C@H](C)[C@H](NC(=O)[C@H](Cc1ccccc1)NC(=O)[C@H](CCC(=O)O)NC(=O)[C@@H](NC(=O)[C@H](CCC(=O)O)NC(C)=O)[C@@H](C)O)C(=O)N[C@@H](C)C(=O)N[C@@H](Cc1c[nH]c2ccccc12)C(=O)NCC(=O)N1CCC[C@H]1C(=O)N(C)[C@H](C(=O)NCC(=O)N[C@@H](CC(=O)O)C(=O)N[C@@H](CCC(=O)O)C(=O)N[C@@H](CC(=O)O)C(N)=O)[C@@H](C)O` (Ac-ETEFIAWGP[NMeT]GDED-NH2), the Ki under setting [2] was 77 ± 3 nM.
Consider `CC[C@H](C)[C@H](NC(=O)[C@H](Cc1ccccc1)NC(=O)[C@H](CCC(=O)O)NC(=O)[C@@H](NC(=O)[C@H](CCC(=O)O)NC(=O)[C@@H](NC(C)=O)[C@@H](C)O)[C@@H](C)O)C(=O)N[C@@H](C)C(=O)N[C@@H](Cc1c[nH]c2ccccc12)C(=O)NCC(=O)N1CCC[C@H]1C(=O)N[C@H](C(=O)NCC(=O)N[C@@H](CC(=O)O)C(=O)N[C@@H](CCC(=O)O)C(=O)N[C@@H](CC(=O)O)C(=O)N[C@@H](C)C(N)=O)[C@@H](C)O` (Ac-TETEFIAWGPTGDEDA-NH2), for which, under “Table 5, elongation and truncation scan of AJAP-1 binding epitope”, the Ki was 36 ± 1.7 nM.
Turning to `CC[C@H](C)[C@H](NC(=O)[C@H](Cc1ccccc1)NC(=O)[C@H](CCC(=O)O)NC(=O)[C@H]([C@@H](C)O)N(C)C(=O)[C@H](CCC(=O)O)NC(C)=O)C(=O)N[C@@H](C)C(=O)N[C@@H](Cc1c[nH]c2ccccc12)C(=O)NCC(=O)N1CCC[C@H]1C(=O)N[C@H](C(=O)NCC(=O)N[C@@H](CC(=O)O)C(=O)N[C@@H](CCC(=O)O)C(=O)N[C@@H](CC(=O)O)C(N)=O)[C@@H](C)O` [E(N-Me-T)EFIAWGPTGDED] (Ac-E[NMeT]EFIAWGPTGDED-NH2), the Ki under setting [2] was 37 ± 2 nM.
Consider `CC[C@H](C)[C@H](NC(=O)[C@H](Cc1ccccc1)NC(=O)[C@H](CCC(=O)O)NC(=O)[C@@H](NC(=O)[C@H](CCC(=O)O)NC(C)=O)[C@@H](C)O)C(=O)N[C@@H](C)C(=O)N[C@@H](Cc1c[nH]c2ccccc12)C(=O)N[C@@H](Cc1c[nH]cn1)C(=O)N1CCC[C@H]1C(=O)N[C@H](C(=O)NCC(=O)N[C@@H](CC(=O)O)C(=O)N[C@@H](CCC(=O)O)C(=O)N[C@@H](CC(=O)O)C(N)=O)[C@@H](C)O` [ETEFIAWHPTGDED] (Ac-ETEFIAWHPTGDED-NH2), for which the Ki under setting [1] is 240 ± 7 nM.
Take `CC(=O)N[C@@H](CCC(=O)O)C(=O)N[C@@H](CC(=O)O)C(=O)N[C@@H](CC(=O)O)C(=O)N[C@@H](CO)C(=O)N[C@@H](CC(=O)O)C(=O)N[C@H](C(=O)N[C@@H](Cc1c[nH]c2ccccc12)C(=O)N[C@@H](Cc1c[nH]c2ccccc12)C(=O)NCC(=O)NCC(=O)N[C@@H](Cc1ccc(O)cc1)C(=O)N[C@@H](CC(=O)O)C(=O)N[C@H](C(=O)N[C@@H](CC(=O)O)C(N)=O)[C@@H](C)O)C(C)C` (Ac-EDDSDVWWGGYDTD-NH2): the Ki (Table 10, deep mutational scanning validation variants of APPWT) was 255 ± 11 nM.
Turning to `CC[C@H](C)[C@H](NC(=O)[C@H](Cc1ccccc1)NC(=O)[C@H](CCC(=O)O)NC(=O)[C@@H](NC(=O)[C@H](CCC(=O)O)NC(C)=O)[C@@H](C)O)C(=O)N[C@@H](C)C(=O)N[C@@H](Cc1c[nH]c2ccccc12)C(=O)NCC(=O)N1CCC[C@H]1C(=O)N[C@H](C(=O)NCC(=O)N(C)[C@@H](CC(=O)O)C(=O)N[C@@H](CCC(=O)O)C(=O)N[C@@H](CC(=O)O)C(N)=O)[C@@H](C)O` (Ac-ETEFIAWGPTG[NMeD]ED-NH2), the Ki under setting [2] is 45 ± 2 nM.
As to `CC(=O)N[C@@H](CCC(=O)O)C(=O)N[C@@H](CC(=O)O)C(=O)N[C@@H](CC(=O)O)C(=O)N[C@@H](CO)C(=O)N[C@@H](CC(=O)O)C(=O)N[C@H](C(=O)N[C@@H](Cc1c[nH]c2ccccc12)C(=O)N[C@@H](Cc1ccc(OCc2ccccc2)cc1)C(=O)NCC(=O)NCC(=O)N[C@@H](C)C(=O)N[C@@H](CC(=O)O)C(=O)N[C@H](C(=O)N[C@@H](CC(=O)O)C(N)=O)[C@@H](C)O)C(C)C` [EDDSDVW(Obtyr)GGADTD] (Ac-EDDSDVWY(Bn)GGADTD-NH2), the Ki (Table 16, ncAAs incorporated peptides) is 3860 ± 62 nM.
For `CC[C@H](C)[C@H](NC(=O)[C@H](Cc1ccccc1)NC(=O)[C@H](CCC(=O)O)NC(=O)[C@@H](NC(=O)[C@H](CCC(=O)O)NC(C)=O)[C@@H](C)O)C(=O)N[C@@H](C)C(=O)N[C@@H](Cc1c[nH]c2ccccc12)C(=O)NCC(=O)N1CCC[C@H]1C(=O)N[C@H](C(=O)NCC(=O)N[C@@H](CC(=O)O)C(=O)N[C@@H](Cc1c[nH]cn1)C(=O)N[C@@H](CC(=O)O)C(N)=O)[C@@H](C)O`, the Ki under setting [1] was 39 ± 2 nM.
On to `CC(=O)N[C@@H](CCC(=O)O)C(=O)N[C@@H](CCC(=O)O)C(=O)N[C@@H](CC(=O)O)C(=O)N[C@@H](CC(=O)O)C(=O)N[C@@H](CO)C(=O)N[C@@H](CC(=O)O)C(=O)N[C@H](C(=O)N[C@@H](Cc1c[nH]c2ccccc12)C(=O)N[C@@H](Cc1c[nH]c2ccccc12)C(=O)NCC(=O)NCC(=O)N[C@@H](C)C(=O)N[C@@H](CC(=O)O)C(=O)N[C@H](C(=O)N[C@@H](CC(=O)O)C(=O)N[C@@H](Cc1ccc(O)cc1)C(=O)N[C@@H](C)C(N)=O)[C@@H](C)O)C(C)C` (Ac-EEDDSDVWWGGADTDYA-NH2), for which the Ki under setting [3] was 299 ± 8 nM.
For `CC[C@H](C)[C@H](NC(=O)[C@H](Cc1ccccc1)NC(=O)[C@H](CCC(=O)O)NC(=O)[C@@H](NC(=O)[C@H](CCC(=O)O)NC(C)=O)[C@@H](C)O)C(=O)N[C@@H](C)C(=O)N[C@@H](Cc1c[nH]c2ccccc12)C(=O)NCC(=O)N1CCC[C@H]1C(=O)N[C@H](C(=O)NCC(=O)N[C@@H](CC(=O)O)C(=O)N[C@@H](Cc1c[nH]c2ccccc12)C(=O)N[C@@H](CC(=O)O)C(N)=O)[C@@H](C)O` (Ac-ETEFIAWGPTGDWD-NH2), the Ki under setting [1] was 54 ± 1 nM.
`CC(=O)NCC(=O)NCC(=O)N[C@@H](C)C(=O)N[C@@H](CC(=O)O)C(=O)N[C@H](C(=O)N[C@@H](CC(=O)O)C(=O)N[C@@H](Cc1ccc(O)cc1)C(=O)N[C@@H](C)C(=O)N[C@@H](CC(=O)O)C(N)=O)[C@@H](C)O` (Ac-GGADTDYAD-NH2): the Ki under setting [3] was above 62500 nM.
As for `CC[C@H](C)[C@H](NC(=O)[C@H](C)NC(C)=O)C(=O)N[C@H](C(=O)N[C@@H](Cc1c[nH]c2ccccc12)C(=O)NCC(=O)N1CCC[C@H]1C(=O)N[C@H](C(=O)N[C@H](C(=O)N[C@@H](CO)C(=O)N[C@@H](CCCNC(=N)N)C(=O)N[C@@H](CCC(=O)O)C(=O)N[C@@H](CC(=O)O)C(=O)NCC(N)=O)C(C)C)[C@@H](C)O)C(C)C` (Ac-AIVWGPTVSREDG-NH2), the Ki under setting [4] is 5550 ± 11 nM.
Regarding `CC[C@H](C)[C@H](NC(=O)[C@H](Cc1ccccc1)NC(=O)[C@H](CCC(=O)O)NC(=O)[C@@H](NC(=O)[C@H](CCC(=O)O)NC(C)=O)[C@@H](C)O)C(=O)N[C@@H](C)C(=O)N[C@@H](Cc1c[nH]c2ccccc12)C(=O)NCC(=O)N1CCC[C@H]1C(=O)N[C@H](C(=O)NCC(=O)N[C@@H](CC(=O)O)C(=O)N[C@@H](CCC(=O)O)C(=O)N(C)[C@@H](CC(=O)O)C(N)=O)[C@@H](C)O` (Ac-ETEFIAWGPTGDE[NMeD]-NH2), the Ki under setting [2] was 29 ± 1 nM.
In the case of `CC[C@H](C)[C@H](NC(=O)[C@H](C)NC(=O)[C@H](Cc1c[nH]c2ccccc12)NC(=O)[C@@H]1CCCN1C(C)=O)C(=O)N[C@H](C(=O)N[C@@H](Cc1c[nH]c2ccccc12)C(=O)NCC(=O)N1CCC[C@H]1C(=O)N[C@H](C(=O)N[C@H](C(=O)N[C@@H](CO)C(=O)N[C@@H](CCCNC(=N)N)C(=O)N[C@@H](CCC(=O)O)C(=O)N[C@@H](C)C(N)=O)C(C)C)[C@@H](C)O)C(C)C` (Ac-PWAIVWGPTVSREA-NH2), the Ki (Table 9, Ala-, D-amino acids and N-methylation scans of PIANPWT) is 572 ± 9 nM.
In the case of `CC(=O)N[C@H](C(=O)N[C@@H](Cc1c[nH]c2ccccc12)C(=O)NCC(=O)N1CCC[C@H]1C(=O)N[C@H](C(=O)N[C@H](C(=O)N[C@@H](CO)C(=O)N[C@@H](CCCNC(=N)N)C(=O)N[C@@H](CCC(=O)O)C(=O)N[C@@H](CC(=O)O)C(=O)NCC(N)=O)C(C)C)[C@@H](C)O)C(C)C` (Ac-VWGPTVSREDG-NH2), the Ki under setting [4] was 1740 ± 62 nM.
Consider `CC(=O)N[C@@H](CCC(=O)O)C(=O)N(C)[C@@H](CC(=O)O)C(=O)N[C@@H](CC(=O)O)C(=O)N[C@@H](CO)C(=O)N[C@@H](CC(=O)O)C(=O)N[C@H](C(=O)N[C@@H](Cc1c[nH]c2ccccc12)C(=O)N[C@@H](Cc1c[nH]c2ccccc12)C(=O)NCC(=O)NCC(=O)N[C@@H](C)C(=O)N[C@@H](CC(=O)O)C(=O)N[C@H](C(=O)N[C@@H](CC(=O)O)C(N)=O)[C@@H](C)O)C(C)C` (Ac-E[NMeD]DSDVWWGGADTD-NH2), for which the Ki under setting [5] was 655 ± 24 nM.
In the case of `CC(=O)N[C@@H](CCC(=O)O)C(=O)N[C@@H](CC(=O)O)C(=O)N[C@@H](CC(=O)O)C(=O)N[C@@H](CO)C(=O)N[C@@H](CC(=O)O)C(=O)N(C)[C@H](C(=O)N[C@@H](Cc1c[nH]c2ccccc12)C(=O)N[C@@H](Cc1c[nH]c2ccccc12)C(=O)NCC(=O)NCC(=O)N[C@@H](C)C(=O)N[C@@H](CC(=O)O)C(=O)N[C@H](C(=O)N[C@@H](CC(=O)O)C(N)=O)[C@@H](C)O)C(C)C` (Ac-EDDSD[NMeV]WWGGADTD-NH2), the Ki under setting [5] is 12300 ± 375 nM.
